In the NIST ThermoML archive (doi:10.1016/j.jct.2015.08.015):
Numbers after ± are expanded uncertainties.

Settings: Liquid, Ebulliometric method (Recirculating still)

CC=CCC#N [3-pentenenitrile]
Settings | vapor or sublimation pressure [kPa]
339.24 K | 7.588 ± 0.15
344.85 K | 9.491 ± 0.19
353.91 K | 13.48 ± 0.27
362.45 K | 18.32 ± 0.37
368.92 K | 22.91 ± 0.46
375.61 K | 28.8 ± 0.58
382.01 K | 35.37 ± 0.71
386.13 K | 40.09 ± 0.81
388.17 K | 42.83 ± 0.86
391.42 K | 47.08 ± 0.95
394.31 K | 51.62 ± 1
398.64 K | 57.83 ± 1.2
402.51 K | 65.49 ± 1.3
407.31 K | 74.49 ± 1.5
409.72 K | 80.01 ± 1.6
412.88 K | 86.78 ± 1.7
414.32 K | 90.5 ± 1.8
417.51 K | 97.9 ± 2
